What was measured:
Assay type in all cases: cell-based
[1] = Cell cytotoxicity 50 assay (CC50), MB200 cells, cell titer glo; details: human
Procedure: Cell Cytotoxicity 50 Assay Protocol (CC50) MB200 cells were grown until 80% confluent in F10 media supplemented with rhFGF basic (10 ng/ml), 15% fetal bovine serum, 1% penicillin streptomycin, 1% amphotericin B, and 1 μM dexamethasone. Adherent MB200 cells growing on 10 cm plate were then trypsinized with 1 ml of trypsin. Once the cells detached from the plate, F10 media (10 mL) was added, and the cells were strained through a 70 μm cell strainer. The cells were counted using a mixture of 10 μL cell suspension with 10 μL of trypan blue. Once the total number of cells were counted, a dilution of 200 k/mL was prepared, and the cells were seeded with 10 k cells/well in a 96-well plate in triplicate, making sure to avoid seeding cells in the edges of the plate to avoid edge effects. Using a multichannel pipet, the 200 k/mL cell dilution (50 μL/well) was added into wells B2-B11, C2-C11, and D2-D11 in triplicate. Into a deep well block (DWB), the media for the appropriate cell line (450 μL/well) was added into wells 1-10. Into DWB well 2, 10 mM of drug solution (13.5 μL) was added, followed by an additional volume of the medium (225 μL). The well was pipetted up/down four times. A portion (225 μL) was transferred to well 3, and this process was repeated up to well 10. Using a multichannel pipet, a smaller portion (50 μL/well) was removed from all wells in the DWB and then dispensed on top of the cells in each corresponding row. After adding the drug, the plate was incubated at 37° C. for 72 h. Using a multi-channel pipet, pre-warmed cell titer glo reagent (Promega) (100 μL) was added into every well. After 5 minutes, the total luminescence was measured with a luminometer. CC50 was determined with GraphPad prism template.

[2] = Cell cytotoxicity 50 assay (CC50), HEK cells; details: human
Procedure: Cell Cytotoxicity 50 Assay Protocol (CC50) Into a deep well block (DWB), the media for the appropriate cell line (450 μL/well) was added into wells 1-10. Into DWB well 2, 10 mM of drug solution (13.5 μL) was added, followed by an additional volume of the medium (225 μL). The well was pipetted up/down four times. A portion (225 μL) was transferred to well 3, and this process was repeated up to well 10. Using a multichannel pipet, a smaller portion (50 μL/well) was removed from all wells in the DWB and then dispensed on top of the cells in each corresponding row. After adding the drug, the plate was incubated at 37° C. for 72 h. Using a multi-channel pipet, pre-warmed cell titer glo reagent (Promega) (100 μL) was added into every well. After 5 minutes, the total luminescence was measured with a luminometer. CC50 was determined with GraphPad prism template.

MBD3L2 RNA = test: RNA isolation and qPCR to determine MBD3L2 RNA levels in FSHD cells; details: 48 hrs
Procedure: Protocol for RNA Isolation and qPCR to Determine MBD3L2 RNA Levels The protocol describes the process of isolating RNA from cultured cells, converting the RNA to complementary DNA (cDNA), and measuring target gene expression using a quantitative polymerase chain reaction (qPCR). The seed FSHD cells were dispensed into a six-well dish. One day after seeding, the DUX4 inhibitor (11 μM or 3.6 μM/well) was added to the cells. After another 48 hrs, the old media was removed from the cells. The cells were washed with 2 mL of warm phosphate buffered saline (PBS). The PBS was aspirated, and the cells were lysed in each well with 350 μL of RLT buffer+3.5 μL of beta-mercaptoethanol (BME). The lysates were added to fresh, RNAse-free, labeled Eppendorf tubes. The cells were then physically disrupted for […] at level 4 of the bead disrupter to ensure the release of the RNA. The RNA was collected according to standard procedures (i.e., Qiagen kit instructions) as discussed below. The RNA concentrations were standardized to […]. In a PCR tube, RNA (2 μg) in a new Eppendorf tube was diluted with RNase-free water to a 9.5 μL final volume of […] RNA. DNase was used to remove any DNA contamination. A DNase Master Mix was prepared from 1.5 μL/reaction DNase solution (1 unit/μL, Promega), 3 μL/reaction 5× RT buffer (i.e., 250 mM Tris-HCl (pH 8.3), 375 mM KCl, 15 mM MgCl2, and 500 μl 0.1 M DTT; Promega MMLV), and 1 μL/reaction RNase inhibitor solution (RNasin, 40 units/μL, Promega). The DNase Master Mix was added to the standardized RNA samples (5.5 μL/sample). The samples were mixed by agitation and briefly spun down by centrifuge. The samples were heated to 37° C. for 60 min, 80° C. for 5 min, and then cooled to 4° C. The samples were stored on ice until the addition of the next reagents. An RT Reaction Master Mix was prepared from 5 μL/reaction 5× RT buffer, 2 μL/reaction dNTP solution (2.5 mM in each nucleotide), 1 μL/reaction RNase inhibitor solution (RNasin, 40 units/μL, Promega), 1.6 μL/reaction M-MLV reverse transcriptase (200 units/μL, Promega), and 13.4 μL/reaction deionized, RNase-free water. The RT Reaction Master Mix was cooled on ice until use. A 50 μM solution of Random Primer 6 random hexanucleotides (2 μL) was added to each sample. The samples were mixed by agitation and briefly spun down by centrifuge. The samples were heated to 70° C. for 5 min and then cooled to 4° C. The RT Reaction Master Mix (23 μL) was added to each sample. The samples were mixed by agitation and briefly spun down by centrifuge. To convert the RNA to cDNA, the samples were heated to 42° C. for 60 min, 95° C. for 5 min, and then cooled to 4° C. The cDNA product mixture was diluted 5:1 with deionized water (40 μL+160 μL). The samples were run in triplicate, with a methyl-CpG-binding protein 3-like 2 (MBD3L2) target primer and a eukaryotic translation elongation factor 1-alpha (EEF1A) control primer. An qPCR Master Mix was prepared for each primer and stored on ice (4° C.) until use. The qPCR Master Mix included 10 μL/reaction SYBR Green Mix (2×) (ThermoFisher), 1 μL/reaction of the primer mix (i.e., the MBD3L2 PCR Primer mix or the EEF1A Primer mix), and 4 μL/reaction deionized, RNase-free water. To set up the qPCR plate, 15 μL of the appropriate qPCR Master Mix was added to the appropriate wells for each target/primer. After all the targets/primers have been added to the wells, 5 μL of the sample was added to the corresponding wells so that each well is 20 μL total. The plate was covered with a clear sheet. An qPCR run was set up (QuantStudio 5) with the following cycle: […]

Structure (SMILES): O=C(CCCc1cccnc1)Nc1ccc(-c2nc3ccccc3s2)o1 [Compound 75]
- CC50 at 72 h [1]: > 10 µM
- CC50 at 72 h [2]: > 10 µM
- qPCR MBD3L2 Inhib at 11 µM (MBD3L2 RNA): YES

Structure (SMILES): O=C(CCCc1cccnc1)NC1CCC(c2nc3ccccc3s2)CC1 (stereo not drawn) [Compound 61]
- CC50 at 72 h [1]: > 10 µM
- CC50 at 72 h [2]: > 10 µM
- qPCR MBD3L2 Inhib at 11 µM (MBD3L2 RNA): YES

Structure (SMILES): O=C(CCCc1cccnc1)Nc1ccc(-c2nc3ccccc3s2)cc1 [Compound 52]
- CC50 at 72 h [1]: > 10 µM
- CC50 at 72 h [2]: > 10 µM
- qPCR MBD3L2 Inhib at 11 µM (MBD3L2 RNA): YES

Structure (SMILES): CCC(=O)NCCCC(=O)Nc1ccc(-c2nc3ccccc3s2)cc1 [Compound 10]
- CC50 at 72 h [1]: > 10 µM
- CC50 at 72 h [2]: > 10 µM
- qPCR MBD3L2 Inhib at 11 µM (MBD3L2 RNA): YES

Structure (SMILES): CC(=O)NCCCC(=O)Nc1ccc(-c2nc(-c3ccccc3)cs2)cc1 [Compound 130]
- CC50 at 72 h [1]: > 10 µM
- CC50 at 72 h [2]: > 10 µM
- qPCR MBD3L2 Inhib at 11 µM (MBD3L2 RNA): YES

Structure (SMILES): CC(C)C(=O)NCCCC(=O)Nc1ccc(-c2nc3ccccc3s2)cc1 [Compound 31]
- CC50 at 72 h [1]: > 10 µM
- CC50 at 72 h [2]: > 10 µM
- qPCR MBD3L2 Inhib at 11 µM (MBD3L2 RNA): YES

Structure (SMILES): CC(=O)NC1CC(C(=O)Nc2ccc(-c3nc4ccccc4s3)cc2)C1 (stereo not drawn) [Compound 86]
- CC50 at 72 h [1]: > 10 µM
- CC50 at 72 h [2]: > 10 µM
- qPCR MBD3L2 Inhib at 11 µM (MBD3L2 RNA): YES

Structure (SMILES): O=C(CCCc1cnco1)Nc1ccc(-c2nc3cc(F)ccc3s2)cc1 [Compound 64]
- CC50 at 72 h [1]: > 10 µM
- CC50 at 72 h [2]: 1 to 10 µM
- qPCR MBD3L2 Inhib at 11 µM (MBD3L2 RNA): YES

Structure (SMILES): O=C(CCN1C(=O)CCC1=O)Nc1ccc(-c2nc3ccccc3s2)cc1 [Compound 1]
- CC50 at 72 h [1]: 1 to 10 µM
- CC50 at 72 h [2]: > 10 µM
- qPCR MBD3L2 Inhib at 11 µM (MBD3L2 RNA): YES

Structure (SMILES): CC(=O)NCCC(=O)Nc1ccc(-c2nc3cc(C#N)ccc3s2)cc1 [Compound 103]
- CC50 at 72 h [1]: > 10 µM
- CC50 at 72 h [2]: > 10 µM
- qPCR MBD3L2 Inhib at 11 µM (MBD3L2 RNA): YES

Structure (SMILES): Cc1ccc2nc(-c3ccc(NC(=O)C4CCC4)cc3)sc2c1 [Compound 29]
- CC50 at 72 h [1]: 1 to 10 µM
- CC50 at 72 h [2]: > 10 µM
- qPCR MBD3L2 Inhib at 11 µM (MBD3L2 RNA): YES

Structure (SMILES): O=C(CCCc1cccnc1)Nc1ccc(-c2nc3cc(F)ccc3s2)cc1 [Compound 155]
- CC50 at 72 h [1]: > 10 µM
- CC50 at 72 h [2]: 1 to 10 µM
- qPCR MBD3L2 Inhib at 11 µM (MBD3L2 RNA): YES

Structure (SMILES): CC(=O)NCCCC(=O)NCc1ccc(-c2nc3ccccc3s2)cc1 [Compound 105]
- CC50 at 72 h [1]: > 10 µM
- CC50 at 72 h [2]: > 10 µM
- qPCR MBD3L2 Inhib at 11 µM (MBD3L2 RNA): YES

Structure (SMILES): O=C(CCCN1C(=O)CCC1=O)NC1CC=C(c2nc3ccccc3s2)CC1 (stereo not drawn) [Compound 46]
- CC50 at 72 h [1]: > 10 µM
- CC50 at 72 h [2]: > 10 µM
- qPCR MBD3L2 Inhib at 11 µM (MBD3L2 RNA): YES

Structure (SMILES): O=C(CCCN1C(=O)CCC1=O)Nc1ccc(-c2nc3c(s2)CCCC3)cc1 [Compound 88]
- CC50 at 72 h [1]: > 10 µM
- CC50 at 72 h [2]: > 10 µM
- qPCR MBD3L2 Inhib at 11 µM (MBD3L2 RNA): YES
